According to US7507727B2, “Substituted quinobenzoxazine analogs and methods of using thereof” (Cylene Pharmaceuticals, Inc., priority 2003, dated 2009):

target: c-Myc template DNA (c-myc quadruplex); test: Quadruplex binding / stop assay (Taq polymerase arrest, capillary electrophoresis); settings: read-out: S DATA; Table 1D, stop assay data

Row | SMILES | IC50
1 | NC1CCN(c2c(F)cc3c(=O)c(C(=O)NCCN4CCOCC4)cn4c3c2Oc2ccccc2-4)C1 (stereo not shown) [compound 1620] | > 15000 nM
2 | CN1CCN(CCCNC(=O)c2cn3c4c(c(N5CCC(N)C5)c(F)cc4c2=O)Oc2ccccc2-3)CC1 (stereo not shown) [compound 1621] | 750 nM
3 | NC1CCN(C(=O)c2cn3c4c(c(N5CCC(N)C5)c(F)cc4c2=O)Oc2ccccc2-3)C1 (stereo not shown) [compound 1622] | > 15000 nM
4 | CN1CCCC1CCNC(=O)c1cn2c3c(c(N4CCC(N)C4)c(F)cc3c1=O)Oc1ccccc1-2 (stereo not shown) [compound 1623] | > 15000 nM
5 | CN(C)CCCCNC(=O)c1cn2c3c(c(N4CCC(N)C4)c(F)cc3c1=O)Oc1ccccc1-2 (stereo not shown) [compound 1624] | 750 nM
6 | CN(C)CC(C)(C)CNC(=O)c1cn2c3c(c(N4CCC(N)C4)c(F)cc3c1=O)Oc1ccccc1-2 (stereo not shown) [compound 1625] | > 15000 nM
7 | CC1(C)CC(NC(=O)c2cn3c4c(c(N5CCC(N)C5)c(F)cc4c2=O)Oc2ccccc2-3)CC(C)(C)N1 (stereo not shown) [compound 1626] | > 15000 nM
8 | CC(C)N1CCN(c2c(F)cc3c(=O)c(C(=O)N4CCC(N)C4)cn4c3c2Oc2ccccc2-4)CC1 (stereo not shown) [compound 1627] | > 15000 nM
9 | CN1CCN(CCCNc2c(F)cc3c(=O)c(C(=O)N4CCC(N)C4)cn4c3c2Oc2ccccc2-4)CC1 (stereo not shown) [compound 1628] | > 15000 nM
10 | NC1CCN(C(=O)c2cn3c4c(c(NCCN5CCCC5)c(F)cc4c2=O)Oc2ccccc2-3)C1 (stereo not shown) [compound 1629] | > 15000 nM
11 | NC1CCN(C(=O)c2cn3c4c(c(NCCN5CCOCC5)c(F)cc4c2=O)Oc2ccccc2-3)C1 (stereo not shown) [compound 1630] | > 15000 nM
12 | CN1CCN(CCCNc2c(F)cc3c(=O)c(C(=O)NCCCCNC(=N)N)cn4c3c2Oc2ccccc2-4)CC1 [compound 1631] | > 15000 nM
13 | CC(C)(C)OC(=O)NC1CCN(c2c(F)cc3c(=O)c(C(=O)NCCCCNC(=N)N)cn4c3c2Oc2ccccc2-4)C1 (stereo not shown) [compound 1632] | > 15000 nM
14 | N=C(N)NCCCCNC(=O)c1cn2c3c(c(NCCN4CCCC4)c(F)cc3c1=O)Oc1ccccc1-2 [compound 1633] | > 15000 nM
15 | N=C(N)NCCCCNC(=O)c1cn2c3c(c(NCCN4CCOCC4)c(F)cc3c1=O)Oc1ccccc1-2 [compound 1634] | > 15000 nM
16 | NC1CCN(C(=O)c2cn3c4c(c(N5CC6CCCNC6C5)c(F)cc4c2=O)Oc2cc4ccccc4cc2-3)C1 (stereo not shown) [compound 1638] | 1750 nM
17 | CN1CCN(CCCNC(=O)c2cn3c4c(c(N5CC6CCCNC6C5)c(F)cc4c2=O)Oc2cc4ccccc4cc2-3)CC1 (stereo not shown) [compound 1641] | 750 nM
18 | O=C(c1cn2c3c(c(N4CC5CCCNC5C4)c(F)cc3c1=O)Oc1cc3ccccc3cc1-2)N1CCC(N2CCCC2)CC1 (stereo not shown) [compound 1643] | > 15000 nM
19 | N=C(N)NCCCNC(=O)c1cn2c3c(c(N4CC5CCCNC5C4)c(F)cc3c1=O)Oc1cc3ccccc3cc1-2 (stereo not shown) [compound 1647] | 1000 nM
20 | N=C(N)NCCCCNC(=O)c1cn2c3c(c(N4CC5CCCNC5C4)c(F)cc3c1=O)Oc1cc3ccccc3cc1-2 (stereo not shown) [compound 1648] | 1000 nM
21 | N=C(N)NCCCCNC(=O)c1cn2c3c(c(NCCCN4CCOCC4)c(F)cc3c1=O)Oc1cc3ccccc3cc1-2 [compound 1650] | 1000 nM
22 | N=C(N)NCC1CCCC(CNC(=O)c2cn3c4c(c(NCCCN5CCOCC5)c(F)cc4c2=O)Oc2cc4ccccc4cc2-3)C1 (stereo not shown) [compound 1651] | 1000 nM
23 | CN(C)CC(C)(C)CNC(=O)c1cn2c3c(c(NCCCN4CCOCC4)c(F)cc3c1=O)Oc1cc3ccccc3cc1-2 [compound 1652] | 1000 nM

Row | SMILES | IC50
24 | N=C(N)NCCNC(=O)c1cn2c3c(c(NCCN4CCCC4)c(F)cc3c1=O)Oc1cc3ccccc3cc1-2 [compound 1653] | 340 nM
25 | N=C(N)NCCCNC(=O)c1cn2c3c(c(NCCN4CCCC4)c(F)cc3c1=O)Oc1cc3ccccc3cc1-2 [compound 1654] | 1000 nM
26 | N=C(N)NCCCCNC(=O)c1cn2c3c(c(NCCN4CCCC4)c(F)cc3c1=O)Oc1cc3ccccc3cc1-2 [compound 1655] | 1000 nM
27 | CC(O)CNc1c(F)cc2c(=O)c(C(=O)NCCC3CCCN3C)cn3c2c1Oc1cc2ccccc2cc1-3 (stereo not shown) [compound 1656] | 1750 nM
28 | CN1CCCC1CCNC(=O)c1cn2c3c(c(NCCCCCO)c(F)cc3c1=O)Oc1cc3ccccc3cc1-2 (stereo not shown) [compound 1658] | 1750 nM
29 | CCCCOCCCNc1c(F)cc2c(=O)c(C(=O)NCCC3CCCN3C)cn3c2c1Oc1cc2ccccc2cc1-3 (stereo not shown) [compound 1659] | 1750 nM
30 | CN1CCCC1CCNC(=O)c1cn2c3c(c(NCCCN4CCCC4=O)c(F)cc3c1=O)Oc1cc3ccccc3cc1-2 (stereo not shown) [compound 1660] | 1800 nM
31 | CN1CCCC1CCNC(=O)c1cn2c3c(c(NCCCCO)c(F)cc3c1=O)Oc1cc3ccccc3cc1-2 (stereo not shown) [compound 1661] | 1750 nM
32 | CC(CNc1c(F)cc2c(=O)c(C(=O)NCCC3CCCN3C)cn3c2c1Oc1cc2ccccc2cc1-3)c1ccccc1 (stereo not shown) [compound 1662] | 1750 nM
33 | COc1ccc(CCNc2c(F)cc3c(=O)c(C(=O)NCCC4CCCN4C)cn4c3c2Oc2cc3ccccc3cc2-4)cc1 (stereo not shown) [compound 1663] | 1750 nM
34 | O=C(NCCN1CCCC1)c1cn2c3c(c(N4CCC(c5cnccn5)C4)c(F)cc3c1=O)Oc1cc3ccccc3cc1-2 (stereo not shown) [compound 1664] | 1120 nM
35 | CN1CCCC1CCNC(=O)c1cn2c3c(c(NCCc4c[nH]c5ccccc45)c(F)cc3c1=O)Oc1cc3ccccc3cc1-2 (stereo not shown) [compound 1666] | 1750 nM
36 | COc1ccc2c(CCNc3c(F)cc4c(=O)c(C(=O)NCCC5CCCN5C)cn5c4c3Oc3cc4ccccc4cc3-5)c[nH]c2c1 (stereo not shown) [compound 1667] | 1750 nM
37 | CN1CCCC1CCNC(=O)c1cn2c3c(c(NCC4CC(C)(C)N(O)C4(C)C)c(F)cc3c1=O)Oc1cc3ccccc3cc1-2 (stereo not shown) [compound 1668] | 375 nM
38 | COc1cccc(CCNc2c(F)cc3c(=O)c(C(=O)NCCC4CCCN4C)cn4c3c2Oc2cc3ccccc3cc2-4)c1 (stereo not shown) [compound 1669] | 1750 nM
39 | CN1CCCC1CCNC(=O)c1cn2c3c(c(NCCCn4ccnc4)c(F)cc3c1=O)Oc1cc3ccccc3cc1-2 (stereo not shown) [compound 1670] | 1000 nM
40 | COc1ccc2[nH]cc(CCNc3c(F)cc4c(=O)c(C(=O)NCCC5CCCN5C)cn5c4c3Oc3cc4ccccc4cc3-5)c2c1 (stereo not shown) [compound 1671] | 1750 nM
41 | COc1ccc(OC)c(CCNc2c(F)cc3c(=O)c(C(=O)NCCC4CCCN4C)cn4c3c2Oc2cc3ccccc3cc2-4)c1 (stereo not shown) [compound 1672] | 1750 nM
42 | COc1cccc(CCNc2c(F)cc3c(=O)c(C(=O)NCCC4CCCN4C)cn4c3c2Oc2cc3ccccc3cc2-4)c1OC (stereo not shown) [compound 1673] | 2500 nM
43 | CCOC(CCCNc1c(F)cc2c(=O)c(C(=O)NCCC3CCCN3C)cn3c2c1Oc1cc2ccccc2cc1-3)OCC (stereo not shown) [compound 1674] | 750 nM
44 | CN1CCCC1CCNC(=O)c1cn2c3c(c(NCCCCCCO)c(F)cc3c1=O)Oc1cc3ccccc3cc1-2 (stereo not shown) [compound 1675] | > 15000 nM
45 | CN1CCCC1CCNC(=O)c1cn2c3c(c(NCC(O)CO)c(F)cc3c1=O)Oc1cc3ccccc3cc1-2 (stereo not shown) [compound 1677] | 1750 nM
46 | CN1CCCC1CCNC(=O)c1cn2c3c(c(NCCCO)c(F)cc3c1=O)Oc1cc3ccccc3cc1-2 (stereo not shown) [compound 1678] | 1750 nM

Row | SMILES | IC50
47 | CCc1ccc(CCNc2c(F)cc3c(=O)c(C(=O)NCCC4CCCN4C)cn4c3c2Oc2cc3ccccc3cc2-4)cc1OC (stereo not shown) [compound 1679] | 690 nM
48 | C[C@@H](O)CNc1c(F)cc2c(=O)c(C(=O)NCCC3CCCN3C)cn3c2c1Oc1cc2ccccc2cc1-3 (stereo partly shown) [compound 1682] | 750 nM
49 | C[C@H](O)CNc1c(F)cc2c(=O)c(C(=O)NCCC3CCCN3C)cn3c2c1Oc1cc2ccccc2cc1-3 (stereo partly shown) [compound 1683] | 1750 nM
50 | COc1ccccc1CCNc1c(F)cc2c(=O)c(C(=O)NCCC3CCCN3C)cn3c2c1Oc1cc2ccccc2cc1-3 (stereo not shown) [compound 1684] | > 15000 nM
51 | CC1CCCN(CCCNc2c(F)cc3c(=O)c(C(=O)NCCC4CCCN4C)cn4c3c2Oc2cc3ccccc3cc2-4)C1 (stereo not shown) [compound 1685] | 1750 nM
52 | CC1CCCC(C)N1CCCNc1c(F)cc2c(=O)c(C(=O)NCCC3CCCN3C)cn3c2c1Oc1cc2ccccc2cc1-3 (stereo not shown) [compound 1687] | 1750 nM
53 | CN1CCCC1CCNC(=O)c1cn2c3c(c(NCCCNC(=O)OC(C)(C)C)c(F)cc3c1=O)Oc1cc3ccccc3cc1-2 (stereo not shown) [compound 1689] | 1750 nM
54 | CCCCN1CCC(CNc2c(F)cc3c(=O)c(C(=O)NCCC4CCCN4C)cn4c3c2Oc2cc3ccccc3cc2-4)CC1 (stereo not shown) [compound 1691] | 1000 nM
55 | CCCCOCCCNC(=O)c1cn2c3c(c(N4CCC(N)C4)c(F)cc3c1=O)Oc1cc3ccccc3cc1-2 (stereo not shown) [compound 1692] | > 15000 nM
56 | NC1CCN(c2c(F)cc3c(=O)c(C(=O)NCC4CCCO4)cn4c3c2Oc2cc3ccccc3cc2-4)C1 (stereo not shown) [compound 1693] | > 15000 nM
57 | NC1CCN(c2c(F)cc3c(=O)c(C(=O)NCCCN4CCCC4=O)cn4c3c2Oc2cc3ccccc3cc2-4)C1 (stereo not shown) [compound 1694] | > 15000 nM
58 | CC(CNC(=O)c1cn2c3c(c(N4CCC(N)C4)c(F)cc3c1=O)Oc1cc3ccccc3cc1-2)c1ccccc1 (stereo not shown) [compound 1695] | > 15000 nM
59 | NC1CCN(c2c(F)cc3c(=O)c(C(=O)NCCc4c[nH]c5ccccc45)cn4c3c2Oc2cc3ccccc3cc2-4)C1 (stereo not shown) [compound 1696] | > 15000 nM
60 | CCOCCCNC(=O)c1cn2c3c(c(N4CCC(N)C4)c(F)cc3c1=O)Oc1cc3ccccc3cc1-2 (stereo not shown) [compound 1697] | > 15000 nM
61 | COc1cccc(CCNC(=O)c2cn3c4c(c(N5CCC(N)C5)c(F)cc4c2=O)Oc2cc4ccccc4cc2-3)c1 (stereo not shown) [compound 1698] | > 15000 nM
62 | COc1ccc2[nH]cc(CCNC(=O)c3cn4c5c(c(N6CCC(N)C6)c(F)cc5c3=O)Oc3cc5ccccc5cc3-4)c2c1 (stereo not shown) [compound 1699] | 1750 nM
63 | NC1CCN(c2c(F)cc3c(=O)c(C(=O)NCC4CC4)cn4c3c2Oc2cc3ccccc3cc2-4)C1 (stereo not shown) [compound 1700] | > 15000 nM
64 | NC1CCN(c2c(F)cc3c(=O)c(C(=O)NCCc4cccs4)cn4c3c2Oc2cc3ccccc3cc2-4)C1 (stereo not shown) [compound 1701] | > 15000 nM
65 | COc1cccc(CCNC(=O)c2cn3c4c(c(N5CCC(N)C5)c(F)cc4c2=O)Oc2cc4ccccc4cc2-3)c1OC (stereo not shown) [compound 1702] | > 15000 nM
66 | NC1CCN(c2c(F)cc3c(=O)c(C(=O)NCC(O)c4ccccc4)cn4c3c2Oc2cc3ccccc3cc2-4)C1 (stereo not shown) [compound 1703] | > 15000 nM
67 | NC1CCN(c2c(F)cc3c(=O)c(C(=O)NCC(O)CO)cn4c3c2Oc2cc3ccccc3cc2-4)C1 (stereo not shown) [compound 1704] | 1750 nM
